Results published in paper PMC6268315, “Investigating the Spectrum of Biological Activity of Substituted Quinoline-2-Carboxamides and Their Isosteres ^†” (Molecules, 2012).
≈ marks a conversion by molar mass, not a printed value.

test system: Mycobacterium tuberculosis CUH071; test: In vitro antimycobacterial evaluation (alamarBlue); assay type: cell-based; conditions: 168 h, clinical isolate CUH071 with partial INH and PZA resistance, 7 days, read-out: MIC/IC90 M. tuberculosis

Compared with `CC(C)NC(=O)c1ccc2ccccc2n1` [Compound 1, N-Isopropylquinoline-2-carboxamide], `O=C(NC1CCCC1)c1ccc2ccccc2n1` [Compound 5, N-Cyclopentylquinoline-2-carboxamide] is 1.8-fold higher in MIC: 280 µM (≈ 60 µg/mL) for the first, 491 µM (≈ 118 µg/mL) for the second.

First: CCCCCCCCCCCCNC(=O)c1ccc2ccccc2n1 [Compound 2, N-Dodecylquinoline-2-carboxamide]
Second: O=C(NCCc1ccccc1)c1ccc2ccccc2n1 [Compound 11, N-(2-Phenylethyl)quinoline-2-carboxamide]
The MIC of the first is 3.4-fold higher: 367 µM (≈ 125 µg/mL) for the first, 109 µM (≈ 30.1 µg/mL) for the second.

`O=C(c1ccc2ccccc2n1)N1CCCC1` [Compound 3, 2-(Pyrrolidin-1-ylcarbonyl)quinoline] and `O=C(c1ccc2ccccc2c1)N1CCCC1` [Compound 22, 1-(2-Naphthoyl)pyrrolidine] are within 1.5-fold of each other in MIC: 552 µM (≈ 125 µg/mL) for the first, 554 µM (≈ 125 µg/mL) for the second.

`O=C(NC1CCCCC1)c1ccc2ccccc2n1` [Compound 6, N-Cyclohexylquinoline-2-carboxamide] and `O=C(NC1CCCCCC1)c1ccc2ccccc2n1` [Compound 7, N-Cycloheptylquinoline-2-carboxamide] are within 1.5-fold of each other in MIC: 125 µM (≈ 31.8 µg/mL) for the first, 111 µM (≈ 29.8 µg/mL) for the second.

Compared with `Cc1cccc(NC(=O)c2ccc3ccccc3n2)c1` [Compound 14b, N-(3-Methylphenyl)quinoline-2-carboxamide], `COc1ccccc1NC(=O)c1ccc2ccccc2c1` [Compound 32a, N-(2-Methoxyphenyl)-2-naphthamide] is 1.9-fold higher in MIC: 469 µM (≈ 123 µg/mL) for the first, 901 µM (≈ 250 µg/mL) for the second.

`NNC(=O)c1ccncc1` [INH, isoniazid, reference compound] and `NC(=O)c1cnccn1` [PZA, pyrazinamide, reference compound] cannot be ordered by MIC: > 729 µM for the first, > 812 µM for the second.
